Measured values as given in paper PMC4303209, “A novel phosphatidylinositol 3-kinase (PI3K) inhibitor directs a potent FOXO-dependent, p53-independent cell cycle arrest phenotype characterized by the differential induction of a subset of FOXO-regulated genes” (Breast Cancer Research : BCR, 2014).

System: MCF-7 breast cancer cells
Assay: Microarray gene expression analysis (Agilent whole human genome 4 x 44K; compound vs DMSO, LIMMA log2 fold change)
Assay type: cell-based
Conditions: Apoptosis genes

Cn1ncc2c(N3CCOCC3)nc(-c3cccc(O)c3)nc21 [ETP-45658]
KALRN log2FC (Gene 8997): 0.091
SOCS3 log2FC (Gene 9021): -1.264
BRSK2 log2FC (Gene 9024): -0.150
UBE2M log2FC (Gene 9040): -0.487
SART1 log2FC (Gene 9092): -0.304
DNAJA3 log2FC (Gene 9093): 0.296
RABEP1 log2FC (Gene 9135): 0.616
ARHGEF2 log2FC (Gene 9181): -0.734
DEDD log2FC (Gene 9191): -0.182
AURKB log2FC (Gene 9212): -0.212
FAIM3 log2FC (Gene 9214): -0.667
DLG5 log2FC (Gene 9231): -0.344
PNMA1 log2FC (Gene 9240): 0.386
NOG log2FC (Gene 9241): -0.420
CRLF1 log2FC (Gene 9244): -0.116
STK17B log2FC (Gene 9262): 0.460
STK17A log2FC (Gene 9263): 0.274
BCL7C log2FC (Gene 9274): -0.273
TAOK2 log2FC (Gene 9344): -0.736
SLIT2 log2FC (Gene 9353): 0.124
SLC9A3R1 log2FC (Gene 9368): -0.593
TJP2 log2FC (Gene 9414): 0.142
NTN1 log2FC (Gene 9423): -0.272
ITM2B log2FC (Gene 9445): 0.364
AIM2 log2FC (Gene 9447): -0.111
LY86 log2FC (Gene 9450): -0.441
EIF2AK3 log2FC (Gene 9451): 0.631
HAND2 log2FC (Gene 9464): -0.617
ATG5 log2FC (Gene 9474): -0.569
ROCK2 log2FC (Gene 9475): 0.291
MAPK8IP1 log2FC (Gene 9479): -0.208
SLC25A27 log2FC (Gene 9481): 0.161
PSMF1 log2FC (Gene 9491): -0.383
LITAF log2FC (Gene 9516): -0.463
EEF1E1 log2FC (Gene 9521): 0.192
BAG4 log2FC (Gene 9530): 0.066
BAG3 log2FC (Gene 9531): -0.998
EI24 log2FC (Gene 9538): -0.507
BCAR1 log2FC (Gene 9564): -0.597
BRE log2FC (Gene 9577): -0.322
RNF7 log2FC (Gene 9616): -0.220
TRAF4 log2FC (Gene 9618): -0.910
AATK log2FC (Gene 9625): 1.732
IKBKE log2FC (Gene 9641): -0.592
PPM1F log2FC (Gene 9647): -0.513
RAPGEF2 log2FC (Gene 9693): 0.863
ESPL1 log2FC (Gene 9700): 0.453
HERPUD1 log2FC (Gene 9709): 0.217
SLK log2FC (Gene 9748): 0.938
BCLAF1 log2FC (Gene 9774): 0.733
KIAA0141 log2FC (Gene 9812): 0.422
RB1CC1 log2FC (Gene 9821): 1.457
ARHGEF11 log2FC (Gene 9826): -0.194
ARHGEF17 log2FC (Gene 9828): 0.130
MELK log2FC (Gene 9833): 0.433
PSMD6 log2FC (Gene 9861): 0.300
ARNT2 log2FC (Gene 9915): -0.108
THOC1 log2FC (Gene 9984): 0.606
CASP8AP2 log2FC (Gene 9994): 0.813
SRA1 log2FC (Gene 10011): -0.924
PDCD6IP log2FC (Gene 10015): 0.516
PDCD6 log2FC (Gene 10016): -0.540
BCL2L11 log2FC (Gene 10018): 0.145
PARP2 log2FC (Gene 10038): 0.419
DNAJB6 log2FC (Gene 10049): 0.317
DNM1L log2FC (Gene 10059): 0.674
PDCD7 log2FC (Gene 10081): 0.102
PPIF log2FC (Gene 10105): -1.006
FEM1B log2FC (Gene 10116): -0.258
BCAP31 log2FC (Gene 10134): -0.393
RBM5 log2FC (Gene 10181): 0.716
RNF41 log2FC (Gene 10193): 0.235
PSME3 log2FC (Gene 10197): -1.314
DHRS2 log2FC (Gene 10202): 0.711
TOPORS log2FC (Gene 10210): 0.700
PSMD14 log2FC (Gene 10213): 0.447
SPRY2 log2FC (Gene 10253): -1.064
NET1 log2FC (Gene 10276): 0.571
UBE4B log2FC (Gene 10277): -0.652
SAP18 log2FC (Gene 10284): 0.262
TRAIP log2FC (Gene 10293): 0.639
MAEA log2FC (Gene 10296): -0.219
PAK4 log2FC (Gene 10298): -0.601
RTN3 log2FC (Gene 10313): -0.201
CITED2 log2FC (Gene 10370): 2.261
SEMA3A log2FC (Gene 10371): 0.054
DLC1 log2FC (Gene 10395): -0.918
GNB2L1 log2FC (Gene 10399): -0.052
YAP1 log2FC (Gene 10413): 0.283
CFDP1 log2FC (Gene 10428): 0.559
C1D log2FC (Gene 10438): 0.287
ACAA2 log2FC (Gene 10449): 0.222
VAV3 log2FC (Gene 10451): 2.242
STK25 log2FC (Gene 10494): 0.126
SEMA4D log2FC (Gene 10507): 0.201
MYBBP1A log2FC (Gene 10514): -0.538
CIB1 log2FC (Gene 10519): -0.090
ATG7 log2FC (Gene 10533): -0.393
HTATIP2 log2FC (Gene 10553): 0.241
ERN2 log2FC (Gene 10595): -0.829
RBCK1 log2FC (Gene 10616): -0.413
STAMBP log2FC (Gene 10617): 0.425
IVNS1ABP log2FC (Gene 10625): 0.124
TXNIP log2FC (Gene 10628): 2.131
RRAGA log2FC (Gene 10670): -0.331
PNMA2 log2FC (Gene 10687): -0.069
CHL1 log2FC (Gene 10752): 0.057
NES log2FC (Gene 10763): -0.458
PLK2 log2FC (Gene 10769): -0.887
ZMYND11 log2FC (Gene 10771): 0.411
NEK6 log2FC (Gene 10783): -0.620
NCKAP1 log2FC (Gene 10787): 0.702
ZNF268 log2FC (Gene 10795): 0.304
PPP1R13L log2FC (Gene 10848): 0.207
LILRB1 log2FC (Gene 10859): -0.164
MRPS30 log2FC (Gene 10884): 0.391
PROKR1 log2FC (Gene 10887): -0.235
PPARGC1A log2FC (Gene 10891): 0.117
MALT1 log2FC (Gene 10892): -0.183
JTB log2FC (Gene 10899): -0.124
BLCAP log2FC (Gene 10904): -0.662
EDAR log2FC (Gene 10913): -0.358
RNPS1 log2FC (Gene 10921): -0.273
FASTK log2FC (Gene 10922): -0.423
PRDX3 log2FC (Gene 10935): 0.630
MLLT11 log2FC (Gene 10962): -0.777
YWHAQ log2FC (Gene 10971): 0.450
IL24 log2FC (Gene 11009): -0.211
RIPK3 log2FC (Gene 11035): 0.042
PIM2 log2FC (Gene 11040): -0.863
DIDO1 log2FC (Gene 11083): -0.773
FAF1 log2FC (Gene 11124): 0.204
CAPN10 log2FC (Gene 11132): -0.095
NISCH log2FC (Gene 11188): 0.948
CHEK2 log2FC (Gene 11200): 0.312
AKAP13 log2FC (Gene 11214): -0.384
DDX20 log2FC (Gene 11218): 0.500
PDCD10 log2FC (Gene 11235): 0.541
GABARAP log2FC (Gene 11337): 0.197
ATF5 log2FC (Gene 22809): -1.275
PHLDA1 log2FC (Gene 22822): -2.095
CARD8 log2FC (Gene 22900): 0.190
SNW1 log2FC (Gene 22938): 0.686
TRIM32 log2FC (Gene 22954): -0.374
ACIN1 log2FC (Gene 22985): -0.352
TRIM35 log2FC (Gene 23087): 0.473
KIF1B log2FC (Gene 23095): 0.166
PSME4 log2FC (Gene 23198): 0.174
ARHGEF9 log2FC (Gene 23229): 0.258
PACS2 log2FC (Gene 23241): -0.307
MCF2L log2FC (Gene 23263): 0.118
TRIM2 log2FC (Gene 23321): 1.078
ARHGEF12 log2FC (Gene 23365): 0.173
PPP1R13B log2FC (Gene 23368): 0.098
NCSTN log2FC (Gene 23385): 0.216
ADNP log2FC (Gene 23394): 0.193
SIRT1 log2FC (Gene 23411): 1.263
